Test results from ChEMBL document CHEMBL1201862, “PubChem BioAssay data set” (2004).
The source made the active and inactive calls.

Tests used:
[1] = target: Peroxisome proliferator-activated receptor gamma/Nuclear receptor coactivator 2 (Homo sapiens, UniProt P37231); assay type: functional;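 also: agonist potency for raising coactivator recruitment to the receptor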
[2] = target: Peroxisome proliferator-activated receptor gamma/Nuclear receptor coactivator 3 (Homo sapiens, UniProt P37231); assay type: functional;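 also: agonist potency for raising coactivator recruitment to the receptor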
[3] = target: Peroxisome proliferator-activated receptor gamma/Nuclear receptor coactivator 1 (Homo sapiens, UniProt P37231); assay type: functional;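 also: agonist potency as compounds enhance coactivator SRC-1 recruitment to PPARgamma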
[4] = viability of PTEN-deleted HCT116 cells – cell-based, HCT116 PTEN knockout, dose response (AID 1047); assay type: functional;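 also: HCT116 colon tumor cells with PTEN knocked out; cells exposed to compound for 60 hours before readout; potency for loss of cell viability measured by luminescence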
[5] = NIH3T3 cell viability loss – ATP luminescence, mouse fibroblasts, counter-screen, dose response (AID 2010); assay type: functional, cell-based;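 also: cells exposed to compound for about 90 hours before reading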
[6] = viability of HCT116 lacking mutant beta-catenin – cell-based, human colon tumor, dose response (AID 1045); assay type: functional;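 also: HCT116 colon tumor cells with beta catenin knocked out; cells exposed to compound for 60 hours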
[7] = target: Lysosomal acid glucosylceramidase (Homo sapiens, UniProt P04062); assay: Dose response cell-based high throughput screening assay to identify enhancers of beta-glucosidase activity. [Related pubchem assays: 784 ]; assay type: functional
Chain of Lysosomal acid glucosylceramidase (P04062 whole entry): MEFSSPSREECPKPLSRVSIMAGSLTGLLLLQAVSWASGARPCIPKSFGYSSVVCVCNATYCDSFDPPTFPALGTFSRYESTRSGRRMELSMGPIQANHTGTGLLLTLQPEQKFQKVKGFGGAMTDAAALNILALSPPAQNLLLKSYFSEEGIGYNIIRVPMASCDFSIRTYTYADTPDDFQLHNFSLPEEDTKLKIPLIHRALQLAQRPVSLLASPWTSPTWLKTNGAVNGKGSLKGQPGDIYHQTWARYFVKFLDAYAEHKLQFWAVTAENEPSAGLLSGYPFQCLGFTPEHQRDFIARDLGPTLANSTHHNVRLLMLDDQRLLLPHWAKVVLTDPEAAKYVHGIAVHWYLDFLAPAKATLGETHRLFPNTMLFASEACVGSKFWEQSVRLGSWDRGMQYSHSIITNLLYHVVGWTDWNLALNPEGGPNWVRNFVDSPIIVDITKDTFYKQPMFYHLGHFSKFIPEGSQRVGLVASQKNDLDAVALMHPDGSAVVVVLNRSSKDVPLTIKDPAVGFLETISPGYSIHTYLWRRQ

Streptokinase A = target: T1, Streptokinase A (Streptococcus pyogenes serotype M1, UniProt P10520); assay: viability-normalized secreted streptokinase activity reduction – plasminogen activation absorbance, OD405, dose response (AID 1914); assay type: functional, Streptococcus pyogenes M1 GAS;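 also: secreted streptokinase activity via plasminogen activation per viability signal from cell pellet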
T1 sequence (P10520 whole entry): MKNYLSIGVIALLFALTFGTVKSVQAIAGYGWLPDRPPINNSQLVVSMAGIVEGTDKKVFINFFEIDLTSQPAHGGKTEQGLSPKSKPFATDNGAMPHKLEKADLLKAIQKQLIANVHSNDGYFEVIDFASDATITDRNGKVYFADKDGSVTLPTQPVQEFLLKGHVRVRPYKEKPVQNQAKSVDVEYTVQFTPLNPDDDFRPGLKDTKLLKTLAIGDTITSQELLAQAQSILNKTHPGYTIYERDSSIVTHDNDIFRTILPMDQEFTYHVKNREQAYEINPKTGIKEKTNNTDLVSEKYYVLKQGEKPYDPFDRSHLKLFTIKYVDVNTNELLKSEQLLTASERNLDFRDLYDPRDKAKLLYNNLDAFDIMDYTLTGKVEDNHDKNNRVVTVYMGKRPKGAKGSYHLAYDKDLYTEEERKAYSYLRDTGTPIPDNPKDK

[8] = Trypanosoma cruzi growth suppression in host cells – NIH3T3 host cells, beta-gal luminescence, confirmation (AID 2044); assay type: functional, cell-based;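 also: intracellular parasites grown in NIH/3T3 mouse fibroblasts as host cells; luminescent beta-galactosidase reporter signal from transgenic T. cruzi replicating inside host cells; inhibitors lower the luminescence signal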
Streptococcus = assay: GAS UMAA2166 growth inhibition – luminescence, BacTiterGlo, counter-screen for streptokinase expression inhibitor project, dose response (AID 1915); assay type: functional, organism-based;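 also: potency for reduction of bacterial viability or growth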
Vero = assay: cells; assay type: functional; conditions: Chlorocebus sabaeus
[9] = system: Streptococcus sp. 'group A'; assay: Streptococcus pyogenes SK(-)GAS viability under kanamycin – luminescence, BacTiterGlo, confirmation, counter-screen for streptokinase expression inhibitor project, dose response (AID 1900); assay type: functional, organism-based
[10] = target: T2, Mannose-6-phosphate isomerase (Homo sapiens, UniProt P34949); assay: MPI enzyme activity inhibition – biochemical, fluorescence intensity, coupled assay, primary screen (AID 1209)
T2 sequence (P34949 whole entry): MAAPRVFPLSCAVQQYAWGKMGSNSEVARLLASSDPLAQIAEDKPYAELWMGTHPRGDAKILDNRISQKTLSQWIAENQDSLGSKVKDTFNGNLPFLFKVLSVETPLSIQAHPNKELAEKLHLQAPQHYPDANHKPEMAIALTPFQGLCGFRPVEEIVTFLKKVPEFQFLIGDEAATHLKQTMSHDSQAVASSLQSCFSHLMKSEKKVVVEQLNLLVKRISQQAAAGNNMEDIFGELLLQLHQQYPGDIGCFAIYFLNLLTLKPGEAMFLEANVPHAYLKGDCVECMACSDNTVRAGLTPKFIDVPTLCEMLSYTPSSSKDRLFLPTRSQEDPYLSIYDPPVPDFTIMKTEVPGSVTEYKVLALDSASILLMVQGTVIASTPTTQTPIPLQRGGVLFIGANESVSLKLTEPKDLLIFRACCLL

[11] = target: DNA dC->dU-editing enzyme APOBEC-3A (Homo sapiens, UniProt P31941); assay: A3A deaminase inhibition for selectivity – biochemical, dose response (AID 504722); assay type: functional
Chain of DNA dC->dU-editing enzyme APOBEC-3A (P31941 whole entry): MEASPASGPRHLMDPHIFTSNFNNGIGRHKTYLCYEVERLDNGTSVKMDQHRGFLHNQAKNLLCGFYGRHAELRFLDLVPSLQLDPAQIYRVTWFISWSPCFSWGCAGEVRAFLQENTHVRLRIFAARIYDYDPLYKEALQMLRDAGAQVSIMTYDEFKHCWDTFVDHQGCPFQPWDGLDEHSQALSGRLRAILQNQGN

[12] = target: T2, Mannose-6-phosphate isomerase; assay: MPI inhibition at elevated mannose 6-phosphate – biochemical, fluorescence intensity, high mannose 6-phosphate, primary screen (AID 1220)
[13] = target: DNA dC->dU-editing enzyme APOBEC-3G (Homo sapiens, UniProt Q9HC16); assay: Dose Response confirmation of small molecule APOBEC3G DNA Deaminase Inhibitors via a fluorescence-based single-stranded DNA deaminase assay. [Related pubchem assays (depositor defined):AID493012, AID493028]; assay type: functional
Chain of DNA dC->dU-editing enzyme APOBEC-3G (Q9HC16 whole entry): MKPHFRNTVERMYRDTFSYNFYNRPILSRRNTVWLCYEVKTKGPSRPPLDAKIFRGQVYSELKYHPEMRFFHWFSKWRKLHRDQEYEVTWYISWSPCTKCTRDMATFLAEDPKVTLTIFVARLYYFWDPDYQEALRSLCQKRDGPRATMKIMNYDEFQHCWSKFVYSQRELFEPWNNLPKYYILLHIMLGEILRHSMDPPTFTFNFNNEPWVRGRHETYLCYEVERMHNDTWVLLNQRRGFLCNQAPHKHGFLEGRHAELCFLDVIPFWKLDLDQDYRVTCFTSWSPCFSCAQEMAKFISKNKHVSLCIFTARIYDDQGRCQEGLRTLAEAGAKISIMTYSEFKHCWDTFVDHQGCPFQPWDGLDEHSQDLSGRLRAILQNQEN

Estrogen receptor beta [14] = target: T3, Estrogen receptor beta (Homo sapiens, UniProt Q92731); assay: blockers of SRC-3 recruitment to ERβ – biochemical, ELISA, streptavidin-HRP readout, orthogonal assay, confirmation (AID 1060)
T3 sequence (Q92731 whole entry): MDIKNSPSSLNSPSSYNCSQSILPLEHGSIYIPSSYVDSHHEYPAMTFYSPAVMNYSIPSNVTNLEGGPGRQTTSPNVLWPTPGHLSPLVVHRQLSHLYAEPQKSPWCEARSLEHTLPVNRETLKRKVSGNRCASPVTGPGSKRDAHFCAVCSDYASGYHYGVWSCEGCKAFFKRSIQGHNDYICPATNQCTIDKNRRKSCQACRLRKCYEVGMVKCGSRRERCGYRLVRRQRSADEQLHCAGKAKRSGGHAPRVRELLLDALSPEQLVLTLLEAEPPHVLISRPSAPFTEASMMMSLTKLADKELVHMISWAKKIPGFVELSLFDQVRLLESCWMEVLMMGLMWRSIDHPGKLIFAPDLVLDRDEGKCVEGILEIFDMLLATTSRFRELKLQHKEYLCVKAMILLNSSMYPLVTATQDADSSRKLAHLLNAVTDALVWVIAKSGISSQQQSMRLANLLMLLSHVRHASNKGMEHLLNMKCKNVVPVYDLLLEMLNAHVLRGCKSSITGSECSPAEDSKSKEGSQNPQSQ

Estrogen receptor beta [15] = target: T3, Estrogen receptor beta
Bcl-2-like protein 10 = target: T4, Bcl-2-like protein 10 (Homo sapiens, UniProt Q9HD36); assay: Bcl-B/TR3 peptide binding disruption – biochemical, fluorescence polarization, FITC-TR3 peptide, selectivity assay for Bfl-1 inhibitor project, primary screen (AID 748);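 also: fluorescence polarization from a fluorescein-labelled TR3 peptide binding purified Bcl-B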
T4 sequence (Q9HD36 whole entry): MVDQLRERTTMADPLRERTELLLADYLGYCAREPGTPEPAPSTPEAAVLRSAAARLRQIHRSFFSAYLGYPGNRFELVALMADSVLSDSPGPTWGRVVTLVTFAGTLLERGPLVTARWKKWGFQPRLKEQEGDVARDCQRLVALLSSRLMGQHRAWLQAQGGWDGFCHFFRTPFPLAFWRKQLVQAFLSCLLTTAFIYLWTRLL

H9c2 = assay: cells; assay type: functional, cell-based; conditions: Rattus norvegicus, H9c2, Myocardium;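 also: confirmatory concentration-response retest of ultra-high-throughput screening hits for modulation of myocardial damage; cell death induced by hydrogen peroxide oxidative stress; compound pretreatment for 60 min then peroxide exposure for 2 h; potency is for protecting the cells against peroxide damage rather than for killing them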
[16] = target: 26S proteasome non-ATPase regulatory subunit 14 (Homo sapiens, UniProt O00487); assay: inhibition of proteasome subunit RPN11 – biochemical, fluorescence polarization, uHTS hits, confirmation (AID 602368); assay type: functional
Chain of 26S proteasome non-ATPase regulatory subunit 14 (O00487 whole entry): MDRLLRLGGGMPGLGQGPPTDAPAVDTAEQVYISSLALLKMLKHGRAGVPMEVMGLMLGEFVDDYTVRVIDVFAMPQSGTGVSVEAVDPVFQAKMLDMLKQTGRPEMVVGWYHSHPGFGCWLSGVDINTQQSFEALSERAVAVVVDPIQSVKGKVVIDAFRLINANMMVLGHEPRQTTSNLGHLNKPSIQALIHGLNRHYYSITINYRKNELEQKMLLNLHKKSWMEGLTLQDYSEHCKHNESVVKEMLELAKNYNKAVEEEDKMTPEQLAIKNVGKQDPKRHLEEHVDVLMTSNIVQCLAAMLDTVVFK

[17] = target: E3 ubiquitin-protein ligase Mdm2 (Homo sapiens, UniProt Q00987); assay: MDM2-luc reporter signal enhancers, multi-concentration potency testing, MDM2 ubiquitin-protein ligase inhibitor program, whole-cell format, luminescence detection, 384-well microplate (AID 1394); assay type: functional;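 also: MDM2 E3 inhibitors raise luminescence so EC50 is for signal enhancement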
Chain of E3 ubiquitin-protein ligase Mdm2 (Q00987 whole entry): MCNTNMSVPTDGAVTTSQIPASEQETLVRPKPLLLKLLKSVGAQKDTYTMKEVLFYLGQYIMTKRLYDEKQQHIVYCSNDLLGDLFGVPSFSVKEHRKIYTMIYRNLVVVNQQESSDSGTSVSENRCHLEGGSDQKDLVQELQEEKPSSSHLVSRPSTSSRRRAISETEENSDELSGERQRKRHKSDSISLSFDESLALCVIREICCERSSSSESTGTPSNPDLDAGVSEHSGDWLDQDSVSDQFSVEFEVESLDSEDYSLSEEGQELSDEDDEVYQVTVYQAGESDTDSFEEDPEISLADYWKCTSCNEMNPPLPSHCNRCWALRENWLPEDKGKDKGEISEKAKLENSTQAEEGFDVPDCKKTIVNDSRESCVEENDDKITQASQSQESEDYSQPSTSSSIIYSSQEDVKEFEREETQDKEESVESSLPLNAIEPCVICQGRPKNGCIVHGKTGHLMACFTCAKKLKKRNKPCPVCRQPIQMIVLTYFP

[18] = target: 72 kDa type IV collagenase (Homo sapiens, UniProt P08253); assay: Dose Response validation of uHTS RPN11 inhibitor hits using a MMP-2 Fluorescence assay.; assay type: functional
Chain of 72 kDa type IV collagenase (P08253 whole entry): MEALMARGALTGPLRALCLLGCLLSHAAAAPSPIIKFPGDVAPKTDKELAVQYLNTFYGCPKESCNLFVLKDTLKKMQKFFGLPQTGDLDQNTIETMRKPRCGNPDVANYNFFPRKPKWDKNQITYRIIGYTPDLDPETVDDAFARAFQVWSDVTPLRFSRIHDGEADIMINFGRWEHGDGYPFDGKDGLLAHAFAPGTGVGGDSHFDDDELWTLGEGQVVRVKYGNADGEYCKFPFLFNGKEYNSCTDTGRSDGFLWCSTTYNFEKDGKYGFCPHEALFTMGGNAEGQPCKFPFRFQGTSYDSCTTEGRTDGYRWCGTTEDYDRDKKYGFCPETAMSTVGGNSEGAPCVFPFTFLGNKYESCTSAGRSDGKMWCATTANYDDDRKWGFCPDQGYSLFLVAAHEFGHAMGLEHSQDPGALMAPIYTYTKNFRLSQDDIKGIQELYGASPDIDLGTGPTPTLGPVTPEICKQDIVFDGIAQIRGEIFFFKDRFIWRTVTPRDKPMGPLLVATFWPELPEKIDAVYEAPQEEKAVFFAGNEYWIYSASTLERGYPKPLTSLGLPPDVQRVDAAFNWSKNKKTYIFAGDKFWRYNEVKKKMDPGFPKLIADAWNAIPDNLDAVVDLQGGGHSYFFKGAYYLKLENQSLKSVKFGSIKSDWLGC

Prothrombin = Prothrombin (Bos taurus, UniProt P00735); assay: thrombin protease inhibitors – biochemical, fluorescence polarization, uHTS hits, dose response (AID 602369); assay type: functional
[19] = target: Bifunctional protein GlmU (Mycobacterium tuberculosis, UniProt P9WMN3); assay: Inhibitors of Mycobacterial Glucosamine-1-phosphate acetyl transferase (GlmU). Secondary screen.; set-up: species or system Mycobacterium tuberculosis H37Rv
Chain of Bifunctional protein GlmU (P9WMN3 whole entry): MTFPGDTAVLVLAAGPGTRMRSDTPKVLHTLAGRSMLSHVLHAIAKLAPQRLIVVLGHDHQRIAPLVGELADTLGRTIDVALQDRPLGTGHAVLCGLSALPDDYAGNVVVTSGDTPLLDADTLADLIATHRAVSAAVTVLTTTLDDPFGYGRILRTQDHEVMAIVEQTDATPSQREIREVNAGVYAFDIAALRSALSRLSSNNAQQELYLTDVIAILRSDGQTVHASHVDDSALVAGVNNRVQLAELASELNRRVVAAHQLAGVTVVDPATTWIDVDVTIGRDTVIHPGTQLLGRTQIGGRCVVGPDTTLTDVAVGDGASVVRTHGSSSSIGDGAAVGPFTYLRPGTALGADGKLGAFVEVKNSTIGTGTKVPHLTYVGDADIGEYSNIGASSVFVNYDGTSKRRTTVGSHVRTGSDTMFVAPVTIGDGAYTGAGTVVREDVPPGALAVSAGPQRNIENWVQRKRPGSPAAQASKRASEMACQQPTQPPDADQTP

Leucine aminopeptidase = target: T5, Leucine aminopeptidase (Plasmodium falciparum 3D7, UniProt Q8IL11); assay: P. falciparum M17LAP inhibitors, primary screen, biochemical, fluorogenic H-Leu-NHMec substrate, 1536-well (AID 1619); assay type: functional
T5 sequence (Q8IL11 whole entry): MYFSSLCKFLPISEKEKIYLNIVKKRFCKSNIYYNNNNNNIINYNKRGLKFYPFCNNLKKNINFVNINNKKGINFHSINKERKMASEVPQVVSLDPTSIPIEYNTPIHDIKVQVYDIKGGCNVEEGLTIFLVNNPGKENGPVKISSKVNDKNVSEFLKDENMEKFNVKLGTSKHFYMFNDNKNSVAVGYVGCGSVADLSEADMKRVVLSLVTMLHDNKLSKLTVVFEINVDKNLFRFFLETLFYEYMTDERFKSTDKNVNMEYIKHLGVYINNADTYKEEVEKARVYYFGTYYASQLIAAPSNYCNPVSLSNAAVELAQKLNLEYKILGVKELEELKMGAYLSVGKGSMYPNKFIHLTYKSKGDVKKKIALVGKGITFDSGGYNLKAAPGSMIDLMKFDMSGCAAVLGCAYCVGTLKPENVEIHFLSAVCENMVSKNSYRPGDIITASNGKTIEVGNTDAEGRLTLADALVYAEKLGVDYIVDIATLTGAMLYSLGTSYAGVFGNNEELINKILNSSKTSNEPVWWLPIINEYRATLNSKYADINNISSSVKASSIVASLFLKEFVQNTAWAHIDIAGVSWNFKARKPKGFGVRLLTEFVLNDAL

[20] = target: G-protein coupled receptor 55 (Homo sapiens, UniProt Q9Y2T6); assay: inhibition of LPI-stimulated GPR55 beta-arrestin translocation – imaging, U2OS, beta-arrestin-GFP, LPI agonist, primary screen (AID 2013); assay type: functional;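 also: antagonist potency measured as reduced agonist-driven arrestin aggregation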
Chain of G-protein coupled receptor 55 (Q9Y2T6 whole entry): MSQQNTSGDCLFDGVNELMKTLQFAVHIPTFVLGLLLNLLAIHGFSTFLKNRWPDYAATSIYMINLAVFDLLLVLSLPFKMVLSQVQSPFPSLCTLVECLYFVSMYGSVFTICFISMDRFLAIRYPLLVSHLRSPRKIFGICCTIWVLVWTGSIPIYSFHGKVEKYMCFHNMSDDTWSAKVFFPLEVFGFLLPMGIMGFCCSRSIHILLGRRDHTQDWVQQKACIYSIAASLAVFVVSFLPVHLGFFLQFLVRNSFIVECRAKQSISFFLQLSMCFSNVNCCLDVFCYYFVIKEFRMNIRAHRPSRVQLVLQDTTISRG

[21] = target: G-protein coupled receptor 35 (Homo sapiens, UniProt Q9HC97); assay: inhibition of zaprinast-stimulated GPR35 beta-arrestin translocation – imaging, U2OS, beta-arrestin-GFP, zaprinast agonist, primary screen (AID 2058); assay type: functional;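 also: antagonist potency meaning inhibition of agonist-induced arrestin redistribution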
Chain of G-protein coupled receptor 35 (Q9HC97 whole entry): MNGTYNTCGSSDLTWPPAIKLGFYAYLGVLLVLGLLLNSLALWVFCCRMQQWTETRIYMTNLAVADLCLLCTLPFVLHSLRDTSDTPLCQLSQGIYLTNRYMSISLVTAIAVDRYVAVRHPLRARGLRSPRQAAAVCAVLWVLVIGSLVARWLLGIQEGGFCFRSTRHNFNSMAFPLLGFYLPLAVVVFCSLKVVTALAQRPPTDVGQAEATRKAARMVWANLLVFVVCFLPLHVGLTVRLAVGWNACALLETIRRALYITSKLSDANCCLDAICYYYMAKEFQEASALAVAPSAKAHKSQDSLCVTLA

Structure (SMILES): COc1ccccc1C(=O)Nc1ccccn1
- EC50 [1]: > 79.4 µM (not active)
- EC50 [2]: > 79.4 µM (not active)
- EC50 [3]: > 79.4 µM (not active)

Structure (SMILES): CC(C)Cn1c(N)c(C(=O)NCc2cccs2)c2nc3ccccc3nc21
- EC50 [4]: 36 µM (active)
- EC50 [5]: > 60 µM (not active)
- EC50 [6]: 47 µM (active)
- EC50 [7]: 2.49 µM (active)
- EC50 (Streptokinase A): 30.2 µM (active)
- EC50 [8]: 2.17 µM (active)
- EC50 (Streptococcus): 7.88 µM (active)
- CC50 (Vero): 14 µM (active)
- EC50 [9]: 3.56 µM (active)

Structure (SMILES): CC1(C)Cc2c(sc3ncn4c(S)nnc4c23)CO1
- IC50 [10]: > 50 µM (not active)
- IC50 [11]: > 100 µM (inactive)
- IC50 [12]: > 50 µM (not active)
- IC50 [13]: 3.8 µM (active)

Structure (SMILES): COc1ccc(C(N)CCc2ccc(C)o2)cc1 (centres undefined)
- IC50 (Estrogen receptor beta [14]): 93.7 µM (not active)
- IC50 (Estrogen receptor beta [15]): 6.8 µM (active)
- IC50 (Bcl-2-like protein 10): > 50 µM (inactive)

Structure (SMILES): COc1cccc(/C=N/NC(=O)c2[nH]c(C)c(C(=O)N/N=C/c3cccc(OC)c3)c2C)c1
- IC50 (H9c2): 10.6 µM (active)
- IC50 [16]: 1.41 µM (active)
- EC50 [17]: 6.15 µM (not active)
- IC50 [18]: > 100 µM (inactive)
- IC50 (Prothrombin): > 100 µM (inactive)

Structure (SMILES): O=C(O)c1cccc(-c2ccc(/C=N/NC(=O)c3cccnc3)o2)c1
- IC50 [19]: 185 µM (active)
- IC50 (Leucine aminopeptidase): 37.5 µM (active)

Structure (SMILES): O=C1C=CC(=O)N1CCCCCCN1C(=O)C=CC1=O
- IC50 [20]: 9.79 µM (active)
- IC50 [19]: 118 µM (active)
- IC50 [21]: 6.23 µM (active)
